The target of this test is TRAF2 and NCK-interacting protein kinase (Homo sapiens, UniProt Q9UKE5). Briefly: Kinase Assay: The kinase assays were conducted in a 20 μl volume using 384-well plates (Greiner). The reaction mixture consists of compound or vehicle (1% DMSO), 0.08 ng/μl TNIK_N, 1 μM FITC-labeled substrate peptides, including ε-aminocaproic acid and 7 amino acids (described as SEQ ID NO. 3 in "Kinase assay of TEST EXAMPLE 1" of WO 2010/064111(P.31)), 20 mM Hepes, pH 7.5, 0.01% Triton X-100, 5 mM MgCl2, 25 μM ATP and 2 mM DTT. As blank, TNIK_N was excluded from the reaction mixture of vehicle (1% DMSO). The kinase reaction was carried out 1 h at room temperature and terminated by addition of 60 μl of the termination buffer (127 mM Hepes, pH 7.5, 26.7 mM EDTA, 0.01% Triton X-100, 1% DMSO and 0.13% Coating Reagent 3 (Caliper Life Sciences)). The amount of unphosphorylated and phosphorylated FITC-labeled substrate peptides was detected by Mobility Shift Micro Fluidic Technology (Caliper LC3000 System, Caliper Life Sciences).
Sequence of TRAF2 and NCK-interacting protein kinase (Q9UKE5 whole entry): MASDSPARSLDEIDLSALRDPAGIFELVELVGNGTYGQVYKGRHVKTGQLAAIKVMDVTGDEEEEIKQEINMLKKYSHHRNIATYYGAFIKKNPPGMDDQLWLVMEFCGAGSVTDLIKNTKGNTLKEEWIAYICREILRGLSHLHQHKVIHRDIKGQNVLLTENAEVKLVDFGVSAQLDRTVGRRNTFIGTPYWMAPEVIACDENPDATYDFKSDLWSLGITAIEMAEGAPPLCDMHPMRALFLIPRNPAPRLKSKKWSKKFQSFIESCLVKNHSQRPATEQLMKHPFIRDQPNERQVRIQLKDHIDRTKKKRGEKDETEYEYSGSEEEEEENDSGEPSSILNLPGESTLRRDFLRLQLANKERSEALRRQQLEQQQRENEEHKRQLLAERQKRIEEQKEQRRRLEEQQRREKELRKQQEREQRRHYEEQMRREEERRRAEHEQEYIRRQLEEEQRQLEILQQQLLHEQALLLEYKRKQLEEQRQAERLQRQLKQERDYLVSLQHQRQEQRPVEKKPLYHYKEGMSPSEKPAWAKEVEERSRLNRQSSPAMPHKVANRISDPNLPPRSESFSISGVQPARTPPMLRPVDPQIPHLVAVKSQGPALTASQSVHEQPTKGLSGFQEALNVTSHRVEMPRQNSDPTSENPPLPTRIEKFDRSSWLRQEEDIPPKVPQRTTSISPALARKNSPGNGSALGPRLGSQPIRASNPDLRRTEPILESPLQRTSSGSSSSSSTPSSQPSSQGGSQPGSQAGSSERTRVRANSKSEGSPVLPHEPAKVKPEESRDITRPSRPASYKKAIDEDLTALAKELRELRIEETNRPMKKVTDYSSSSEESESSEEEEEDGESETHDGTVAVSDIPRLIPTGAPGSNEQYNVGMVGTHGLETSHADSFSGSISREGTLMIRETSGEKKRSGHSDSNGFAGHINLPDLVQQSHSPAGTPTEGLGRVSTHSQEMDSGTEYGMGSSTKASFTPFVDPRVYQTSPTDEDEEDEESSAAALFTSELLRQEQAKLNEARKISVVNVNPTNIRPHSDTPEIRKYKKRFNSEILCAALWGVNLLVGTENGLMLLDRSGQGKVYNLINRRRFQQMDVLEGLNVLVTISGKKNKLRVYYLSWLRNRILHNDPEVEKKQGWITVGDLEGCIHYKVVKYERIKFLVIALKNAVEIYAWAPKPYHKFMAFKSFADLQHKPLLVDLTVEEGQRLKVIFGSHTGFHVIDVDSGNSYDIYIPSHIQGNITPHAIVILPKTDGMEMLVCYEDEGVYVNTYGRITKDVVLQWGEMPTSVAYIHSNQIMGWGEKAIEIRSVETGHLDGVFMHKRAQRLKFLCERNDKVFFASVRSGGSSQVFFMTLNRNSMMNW

For `NC(=O)c1nc(Nc2ccc3cc(F)ccc3c2)sc1NC(=O)c1ccc(NCCO)cc1`, the IC50 (in general, the midpoint of a concentration-inhibition curve) came to 22.5 nM.

With `CC#CC(=O)Nc1sc(Nc2ccc3ccccc3c2)nc1C(N)=O`, the IC50 amounted to 4.4 nM. To `NC(=O)c1nc(Nc2ccc3ccccc3c2)sc1NC(=O)c1ccc(Cn2ccnc2[N+](=O)[O-])cc1` belongs 9.5 nM.

The values are drawn from ChEMBL document CHEMBL3638749, “Bicyclic thiazole compounds” (2015).
